Assay results taken from paper PMC11879280, “Antimicrobial activity of peptoids against Metallo-β-lactamase-producing Klebsiella pneumoniae, Acinetobacter baumannii, Pseudomonas aeruginosa, and other WHO priority pathogens, including Candida auris” (Journal of Applied Microbiology, 2025).
Converted amounts (≈) assume the structure as drawn.

Tests used:
C. auris CBS10913 [1] = conditions: CBS 10 913; RPMI 1640 with MOPS, 5 × 10^3 CFU ml^−1; ≥90% reduction (≥50% for fluconazole)
C. auris CBS 10913 [2] = test: microbe, parasite or virus in culture; format: cell-based, Candida auris; conditions: C. auris CBS 10913
Method: Amphotericin B was tested in parallel as a positive control (Ramesh et al. [2023]).

C. auris CBS12373 = test: Broth microdilution MIC; format: cell-based, Candida auris; conditions: CBS 12 373; for MIC against C. auris: RPMI 1640 with MOPS, 5 × 10^3 CFU ml^−1, ≥90% reduction (≥50% for fluconazole)
C. auris CBS10913 [3] = test: microbe, parasite or virus in culture; conditions: Candidozyma auris, read-out: MIC against C. auris
C. auris CBS 10913 [4] = test: Sorbitol protection assay; format: cell-based, Candida auris; conditions: C. auris CBS 10913; sorbitol 0.8 mol l^−1 in RPMI, till 7 days
Excerpt: Caspofungin served as a positive control for the assay (Leite et al. [2014]).

S. aureus 117 = conditions: S. aureus 117; CAMHB, 37°C, 16–20 h
Method: (§1) Briefly, bacteria were suspended in cation-adjusted Mueller–Hinton broth (CAMHB; Oxoid, UK) for antibiotics, or MHB (Oxoid, UK) for peptidomimetics to obtain 5 × 10^5 colony forming unit (CFU) ml^−1. […] Positive controls contained only microbes, and blanks contained only media. Microbial suspensions (100 µl) were added to wells, plates wrapped, and incubated at 37°C, 120 rpm for 16–20 h. After incubation, suspensions were removed, log10 diluted, and plated on Trypticase Soya Agar with phosphatidylcholine and Tween 80 to determine minimum bactericidal or fungicidal concentration (MBC or MFC). […] Geometric mean MIC of the peptoids were calculated to evaluate the broad overview of antimicrobial activity across the pathogens.

S. aureus 38 = conditions: S. aureus 38; CAMHB, 37°C, 16–20 h
Method: as §1

S. aureus 04 = conditions: S. aureus 04; CAMHB, 37°C, 16–20 h
Method: as §1

S. aureus 105 = conditions: S. aureus 105; CAMHB, 37°C, 16–20 h
Method: as §1

E. coli 0015 = conditions: E. coli 0015; CAMHB, 37°C, 16–20 h
Method: as §1

[5] = test system: Enteroc. faecalis NCTC 13 379; conditions: Enteroc. faecalis NCTC 13 379; CAMHB, 37°C, 16–20 h
Method: as §1

E. coli 0011 = conditions: E. coli 0011; CAMHB, 37°C, 16–20 h
Method: as §1

En. cloacae 003 = conditions: En. cloacae 003; CAMHB, 37°C, 16–20 h
Method: as §1

E. coli 0010 = conditions: E. coli 0010; CAMHB, 37°C, 16–20 h
Method: as §1

K. pneumoniae JIE4212 = conditions: K. pneumoniae JIE4212; CAMHB, 37°C, 16–20 h
Method: as §1

K. pneumoniae JIE2709 = conditions: K. pneumoniae JIE2709; CAMHB, 37°C, 16–20 h
Method: as §1

K. pneumoniae JIE2713 = conditions: K. pneumoniae JIE2713; CAMHB, 37°C, 16–20 h
Method: as §1

En. cloacae 001 = conditions: En. cloacae 001; CAMHB, 37°C, 16–20 h
Method: as §1

En. cloacae 005 = conditions: En. cloacae 005; CAMHB, 37°C, 16–20 h
Method: as §1

E. coli 005 = conditions: E. coli 005; CAMHB, 37°C, 16–20 h
Method: as §1

C. auris CBS10913 [6] = test: Membrane integrity by flow cytometry (SYTO 9 / PI); format: cell-based, Candida auris; conditions: TM8 at its MIC or 1% Triton X-100, 90 min; PBS control 0.2%
Method: Afterwards, the cells were stained with SYTO 9 (7.5 µmol l^−1) and PI (30 µmol l^−1) for an additional 15 min in the dark at room temperature. Following washing, samples were then analysed for membrane integrity on a BD FACSymphony^TM A3, with a minimum of 10 000 events recorded per sample.

With `C[C@@H]1[C@H](O)[C@@H](C)/C=C/C=C/C=C/C=C/C=C/C=C/C=C/[C@H](O[C@@H]2O[C@H](C)[C@@H](O)[C@H](N)[C@@H]2O)C[C@@H]2O[C@](O)(C[C@@H](O)C[C@@H](O)[C@H](O)CC[C@@H](O)C[C@@H](O)CC(=O)O[C@H]1C)C[C@H](O)[C@H]2C(=O)O` [Amphotericin B, reference compound] the “MIC against C. auris” value (C. auris CBS10913 [1]) was 0.25 µg/mL (≈ 0.271 µM), the “Increase in MIC with ergosterol” value (C. auris CBS 10913 [2]; ergosterol 200 µg ml^−1) was “five-fold” and the MIC (C. auris CBS 10913 [2]; Candidozyma auris, CBS10913, RPMI, read-out: MIC in the absence of ergosterol) was 0.25 µg/mL (≈ 0.271 µM). The “MIC against C. auris” value (C. auris CBS12373) was 0.25 µg/mL (≈ 0.271 µM), the MIC (C. auris CBS12373; Candidozyma auris, value in brackets, read-out: MIC against C. auris) was 0.27 µM (≈ 0.25 µg/mL) and the MIC (C. auris CBS10913 [3]) was 0.27 µM (≈ 0.25 µg/mL).
For `CC[C@H](C)C[C@H](C)CCCCCCCCC(=O)N[C@H]1C[C@@H](O)[C@@H](NCCN)NC(=O)[C@@H]2[C@@H](O)CCN2C(=O)[C@H]([C@H](O)CCN)NC(=O)[C@H]([C@H](O)[C@@H](O)c2ccc(O)cc2)NC(=O)[C@@H]2C[C@@H](O)CN2C(=O)[C@H]([C@@H](C)O)NC1=O` [Caspofungin, reference compound], the “MIC in the presence of sorbitol” value (C. auris CBS 10913 [4]) was 1 µg/mL and the “MIC against C. auris” value (C. auris CBS12373) was 0.25 (228.7) µg ml^−1.
Molecule `CO/N=C(\C(=O)N[C@@H]1C(=O)N2C(C(=O)O)=C(COC(C)=O)CS[C@H]12)c1csc(N)n1` [Cefox, cefotaxime, reference compound] has an MIC of antibiotics (S. aureus 117) of 0.5 µg/mL, an MIC of antibiotics (S. aureus 38) of 0.5 µg/mL and an MIC of antibiotics (S. aureus 04) of 0.5 µg/mL. It also gave an MIC of antibiotics (S. aureus 105) of 16 µg/mL.
`O=C(N[C@H](CO)[C@H](O)c1ccc([N+](=O)[O-])cc1)C(Cl)Cl` [Chl, chloramphenicol, reference compound] gave an MIC of antibiotics (E. coli 0015) of 2 µg/mL, an MIC of antibiotics (S. aureus 117) of 4 µg/mL and an MIC of antibiotics [5] of 64 µg/mL. For the same molecule, the MIC of antibiotics (E. coli 0011) was 1 µg/mL, the MIC of antibiotics (S. aureus 38) was 4 µg/mL and the MIC of antibiotics (S. aureus 04) was 2 µg/mL. The MIC of antibiotics (En. cloacae 003) was 32 µg/mL, the MIC of antibiotics (E. coli 0010) was 8 µg/mL and the MIC of antibiotics (K. pneumoniae JIE4212) was 32 µg/mL. The MIC of antibiotics (K. pneumoniae JIE2709) was greater than 32 µg/mL, the MIC of antibiotics (K. pneumoniae JIE2713) was 32 µg/mL and the MIC of antibiotics (En. cloacae 001) was 32 µg/mL. It also gave an MIC of antibiotics (En. cloacae 005) of 32 µg/mL, an MIC of antibiotics (S. aureus 105) of 32 µg/mL and an MIC of antibiotics (E. coli 005) of 8 µg/mL.
`CC[C@H]1OC(=O)[C@H](C)[C@@H](O[C@H]2C[C@@](C)(OC)[C@@H](O)[C@H](C)O2)[C@H](C)[C@@H](O[C@@H]2O[C@H](C)C[C@H](N(C)C)[C@H]2O)[C@](C)(O)C[C@@H](C)C(=O)[C@H](C)[C@@H](O)[C@]1(C)O` [Ery, erythromycin, reference compound] gave an MIC of antibiotics (S. aureus 117) of 1 µg/mL, an MIC of antibiotics [5] of 4 µg/mL and an MIC of antibiotics (S. aureus 38) of 1 µg/mL. For the same molecule, the MIC of antibiotics (S. aureus 04) was 0.5 µg/mL and the MIC of antibiotics (S. aureus 105) was 32 µg/mL.
`CN(C)c1ccc(O)c2c1C[C@H]1C[C@H]3[C@H](N(C)C)C(O)=C(C(N)=O)C(=O)[C@@]3(O)C(O)=C1C2=O` [Min, minocycline, reference compound] gave an MIC of antibiotics (S. aureus 117) of 0.5 µg/mL, an MIC of antibiotics [5] of 0.5 µg/mL and an MIC of antibiotics (S. aureus 38) of 0.5 µg/mL. It also gave an MIC of antibiotics (S. aureus 04) of 0.25 µg/mL and an MIC of antibiotics (S. aureus 105) of 16 µg/mL.
With `CN[C@H](CC(C)C)C(=O)N[C@H]1C(=O)N[C@@H](CC(N)=O)C(=O)N[C@H]2C(=O)N[C@H]3C(=O)N[C@H](C(=O)N[C@H](C(=O)O)c4cc(O)cc(O)c4-c4cc3ccc4O)[C@H](O)c3ccc(c(Cl)c3)Oc3cc2cc(c3O[C@@H]2O[C@H](CO)[C@@H](O)[C@H](O)[C@H]2O[C@H]2C[C@](C)(N)[C@H](O)[C@H](C)O2)Oc2ccc(cc2Cl)[C@H]1O` [Van, vancomycin, reference compound] the MIC of antibiotics (S. aureus 117) was 4 µg/mL, the MIC of antibiotics [5] was 32 µg/mL and the MIC of antibiotics (S. aureus 38) was 1 µg/mL. It also gave an MIC of antibiotics (S. aureus 04) of 1 µg/mL and an MIC of antibiotics (S. aureus 105) of 1 µg/mL.
Molecule Triton X-100 [reference compound] has a Dead cells (C. auris CBS10913 [6]) of 27.3%.
penicillin [reference compound] showed an MIC of antibiotics (S. aureus 117) of 16 µg/mL, an MIC of antibiotics [5] of 4 µg/mL and an MIC of antibiotics (S. aureus 38) of 16 µg/mL. The MIC of antibiotics (S. aureus 04) was 16 µg/mL and the MIC of antibiotics (S. aureus 105) was 32 µg/mL.
